Data from patent publication US9505749B2, “Quinazolinone compounds and derivatives thereof” (AMGEN INC., priority 2012, dated 2016).

Tests used:
[1] = test system: Axin2 accumulation in SW480 cells; test: Axin2 384 immunofluorescence assay; type: cell-based; settings: Homo sapiens; SW480 cells, 24 hours; read-out: Axin2 384 IF EC50
[2] = test system: total β-catenin in SW480 colorectal cells; test: Total β-catenin MSD 96-well plate assay for SW480 cells; settings: Homo sapiens, SW480, read-out: SW480-Total beta-catenin (TBC) IC50 IP
[3] = target: 6×HIS-tankyrase1 (1091-1325) (Homo sapiens (Human), UniProt O95271); test: Tankyrase 1 biochemical assay (AlphaLisa, PARsylation); settings: 400 nM NAD, 60 minutes at RT; read-out: TNKS1 IC50
[4] = target: 6×HIS-tankyrase 2 (946-1162) (Homo sapiens (Human), UniProt Q9H2K2); test: Tankyrase 2 biochemical assay (AlphaLisa, PARsylation); settings: 250 nM NAD; read-out: TNKS2 IC50
PARP1 = PARP1 (Homo sapiens (Human), UniProt P09874); test: PARP1 biochemical assay (Trevigen kit)
Description: PARP1 biochemical assay was purchased as a kit from Trevigen (cat.#4676-096-K) and used per manufacturers recommendations.

PARP2 = PARP2 (Homo sapiens (Human), UniProt Q9UGN5); test: PARP2 biochemical assay (BPS kit)
PARP2, sequence (Q9UGN5 whole entry): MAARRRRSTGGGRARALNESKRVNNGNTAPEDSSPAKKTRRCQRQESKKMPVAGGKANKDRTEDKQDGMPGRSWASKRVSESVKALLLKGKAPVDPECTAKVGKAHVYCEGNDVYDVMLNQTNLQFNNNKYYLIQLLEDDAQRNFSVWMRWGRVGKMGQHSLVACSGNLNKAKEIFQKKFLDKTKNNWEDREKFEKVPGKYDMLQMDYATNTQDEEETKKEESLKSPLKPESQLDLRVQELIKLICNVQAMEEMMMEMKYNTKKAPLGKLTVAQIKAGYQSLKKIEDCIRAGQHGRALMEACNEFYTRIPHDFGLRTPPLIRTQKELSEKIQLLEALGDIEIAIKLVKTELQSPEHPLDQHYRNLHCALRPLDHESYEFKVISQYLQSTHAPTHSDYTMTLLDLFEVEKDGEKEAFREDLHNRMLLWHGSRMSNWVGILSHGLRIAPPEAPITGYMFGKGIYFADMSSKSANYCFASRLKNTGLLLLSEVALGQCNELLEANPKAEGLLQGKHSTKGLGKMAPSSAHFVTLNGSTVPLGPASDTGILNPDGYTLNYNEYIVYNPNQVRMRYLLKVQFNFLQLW

6×HIS-tankyrase 2 (946-1162), sequence (Q9H2K2 946-1162): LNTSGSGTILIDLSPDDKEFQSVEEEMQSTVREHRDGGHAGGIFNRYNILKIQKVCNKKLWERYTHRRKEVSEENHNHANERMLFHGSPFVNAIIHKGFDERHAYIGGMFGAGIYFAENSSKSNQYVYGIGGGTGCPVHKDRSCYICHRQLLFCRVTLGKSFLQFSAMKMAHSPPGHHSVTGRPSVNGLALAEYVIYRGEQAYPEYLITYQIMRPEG
PARP1, sequence (P09874 whole entry): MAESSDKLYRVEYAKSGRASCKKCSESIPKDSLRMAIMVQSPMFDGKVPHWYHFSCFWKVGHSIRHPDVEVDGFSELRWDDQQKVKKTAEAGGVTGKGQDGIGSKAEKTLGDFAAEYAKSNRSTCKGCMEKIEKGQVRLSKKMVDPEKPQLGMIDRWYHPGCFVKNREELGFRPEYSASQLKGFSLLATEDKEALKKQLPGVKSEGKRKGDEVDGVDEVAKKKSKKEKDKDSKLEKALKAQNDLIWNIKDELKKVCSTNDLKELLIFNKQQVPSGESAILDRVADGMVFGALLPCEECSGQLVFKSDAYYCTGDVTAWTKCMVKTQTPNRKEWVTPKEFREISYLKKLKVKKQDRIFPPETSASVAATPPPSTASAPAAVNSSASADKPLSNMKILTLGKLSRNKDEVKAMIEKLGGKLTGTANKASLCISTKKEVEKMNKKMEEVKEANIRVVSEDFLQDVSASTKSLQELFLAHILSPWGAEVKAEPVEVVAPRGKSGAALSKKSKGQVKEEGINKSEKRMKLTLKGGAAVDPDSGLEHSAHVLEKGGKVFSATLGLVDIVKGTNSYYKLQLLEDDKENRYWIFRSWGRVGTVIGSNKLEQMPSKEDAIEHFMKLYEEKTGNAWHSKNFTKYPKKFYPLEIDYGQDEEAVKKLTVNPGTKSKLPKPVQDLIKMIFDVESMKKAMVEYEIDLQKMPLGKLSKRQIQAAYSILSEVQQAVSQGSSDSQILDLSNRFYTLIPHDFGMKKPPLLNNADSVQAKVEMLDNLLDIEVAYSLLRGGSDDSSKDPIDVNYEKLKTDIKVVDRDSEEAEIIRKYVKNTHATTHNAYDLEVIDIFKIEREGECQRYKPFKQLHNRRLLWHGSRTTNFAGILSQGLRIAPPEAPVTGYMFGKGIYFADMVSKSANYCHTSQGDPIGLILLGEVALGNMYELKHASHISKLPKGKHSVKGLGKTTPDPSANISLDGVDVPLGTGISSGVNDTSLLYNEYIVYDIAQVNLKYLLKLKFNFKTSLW
6×HIS-tankyrase1 (1091-1325), sequence (O95271 1091-1325): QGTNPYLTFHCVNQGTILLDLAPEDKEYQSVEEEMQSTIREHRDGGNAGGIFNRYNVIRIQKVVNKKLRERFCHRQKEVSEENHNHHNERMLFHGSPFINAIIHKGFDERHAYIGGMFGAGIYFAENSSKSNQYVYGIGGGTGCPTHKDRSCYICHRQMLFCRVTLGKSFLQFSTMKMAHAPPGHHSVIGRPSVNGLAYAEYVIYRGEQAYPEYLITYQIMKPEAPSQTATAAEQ

| EC50 [1] [nM] | IC50 [2] [nM] | IC50 [3] [nM] | IC50 [4] [nM] | IC50 (PARP1) [nM] | IC50 (PARP2) [nM] | SMILES |
| --- | --- | --- | --- | --- | --- | --- |
| 628 | 614 | 3.11 | 1.02 | 1390 | 998 | O=C(CCCc1nc2ccccc2c(=O)[nH]1)N[C@H]1CC[C@H](Oc2cccc(Cl)c2)CC1 [Example 66, N-(trans-4-(3-chlorophenoxy)cyclohexyl)-4-(4-oxo-3,4-dihydro-2-quinazolinyl)butanamide] |
| 114 | 63.7 | 1.34 | 0.478 | 887 | 99.7 | O=C(CCCc1nc2ccccc2c(=O)[nH]1)N1CCC(n2c(=O)[nH]c3cc(Cl)ccc32)CC1 [Example 27, 2-(4-(4-(5-chloro-2-oxo-2,3-dihydro-1H-benzimidazol-1-yl)-1-piperidinyl)-4-oxobutyl)-4(3H)-quinazolinone] |
| 417 | 111 | 5.15 | 0.596 | 1980 | 1350 | O=C(CCCc1nc2ccccc2c(=O)[nH]1)N1CCC(c2n[nH]c3ccccc23)CC1 [Example 48, 2-(4-(4-(1H-indazol-3-yl)-1-piperidinyl)-4-oxobutyl)-4(3H)-quinazolinone trifluoroacetic acid] |
| 686 | 2560 | 407 | 451 | 1760 | 317 | O=C(CCCc1nc2ccccc2c(=O)[nH]1)N1CCN(c2nsc3ccccc23)CC1 [Example 69, 2-(4-(4-(1,2-benzisothiazol-3-yl)-1-piperazinyl)-4-oxobutyl)-4(3H)-quinazolinone] |
| 49.2 | 7.14 | 2.23 | 0.434 | 558 | 246 | N#Cc1ccc(O[C@H]2CC[C@H](NC(=O)CCCc3nc4ccccc4c(=O)[nH]3)CC2)cc1 [Example 78, N-(trans-4-(4-cyanophenoxy)cyclohexyl)-4-(4-oxo-3,4-dihydro-2-quinazolinyl)butanamide] |
| 6390 | 2190 | 646 | 152 | 3790 | 916 | O=C(CCCc1nc2ccccc2c(=O)[nH]1)N1CCC(c2nnc(COc3ccc(Cl)cc3)o2)CC1 [Example 17, 2-(4-(4-(5-((4-chlorophenoxy)methyl)-1,3,4-oxadiazol-2-yl)-1-piperidinyl)-4-oxobutyl)-4(3H)-quinazolinone] |
| 1550 | 256 | 6.49 | 1.81 | 10700 | 748 | O=C(CCCc1nc2ccccc2c(=O)[nH]1)N1CCC(n2c(=O)sc3ccccc32)CC1 [Example 50, 2-(4-oxo-4-(4-(2-oxo-1,3-benzothiazol-3(2H)-yl)-1-piperidinyl)butyl)-4(3H)-quinazolinone trifluoroacetic acid] |
| 287 | 145 | 15.8 | 4.44 | 2270 | 2420 | O=C(CCSCc1nc2ccccc2c(=O)[nH]1)N[C@H]1CC[C@H](c2nnc(-c3ccccc3)o2)CC1 [Example 92, 3-(((4-oxo-3,4-dihydro-2-quinazolinyl)methyl)sulfanyl)-N-(trans-4-(5-phenyl-1,3,4-oxadiazol-2-yl)cyclohexyl)propanamide] |
| 661 | 348 | 4.09 | 0.517 | 894 | 553 | O=C(CCCc1nc2ccccc2c(=O)[nH]1)N1CCC(n2c(=O)[nH]c3cc(F)ccc32)CC1 [Example 51, 2-(4-(4-(5-fluoro-2-oxo-2,3-dihydro-1H-benzimidazol-1-yl)-1-piperidinyl)-4-oxobutyl)-4(3H)-quinazolinone trifluoroacetic acid] |
| 247 | 63.9 | 18.8 | 2.59 | 5410 | 783 | O=C(CCCc1nc2ccccc2c(=O)[nH]1)N1CCC(c2nnc(-c3ccc(F)cc3)o2)CC1 [Example 6, 2-(4-(4-(5-(4-fluorophenyl)-1,3,4-oxadiazol-2-yl)piperidin-1-yl)-4-oxobutyl)quinazolin-4(3H)-one] |
| 1020 | 1680 | 3.97 | 8.78 | > 85000 | > 170000 | Nc1cc(=O)[nH]c(SCCC(=O)N[C@H]2CC[C@H](c3nnc(-c4ccccc4)o3)CC2)n1 [Example 91, 3-((4-amino-6-oxo-1,6-dihydro-2-pyrimidinyl)sulfanyl)-N-(trans-4-(5-phenyl-1,3,4-oxadiazol-2-yl)cyclohexyl)propanamide] |
| 266 | 73.6 | 2.51 | 0.719 | 5820 | 1100 | O=C(CCCc1nc2ccccc2c(=O)[nH]1)N[C@H]1CC[C@H](Oc2ccccn2)CC1 [Example 56, 4-(4-oxo-3,4-dihydro-2-quinazolinyl)-N-(trans-4-(2-pyridinyloxyl)cyclohexyl)butanamide] |
| 2330 | 1710 | 16.6 | 6.33 | 1390 | 350 | O=C(CSc1nc2ccccc2c(=O)[nH]1)N1CCC(c2nnc(-c3ccccc3)o2)CC1 [Example 89, 2-((2-oxo-2-(4-(5-phenyl-1,3,4-oxadiazol-2-yl)piperidin-1-yl)ethyl)thio)quinazolin-4(3H)-one] |
| – | 3310 | 128 | 73.7 | 1470 | 99.4 | O=C(CCSc1nc2ccccc2c(=O)[nH]1)N1CCC(n2c(=O)[nH]c3cc(Cl)ccc32)CC1 [Example 82, 2-((3-(4-(5-chloro-2-oxo-2,3-dihydro-1H-benzo[d]imidazol-1-yl)piperidin-1-yl)-3-oxopropyl)thio)quinazolin-4(3H)-one] |
| – | 2220 | 12.1 | 6.3 | 1230 | 89.5 | O=C(CCSc1nc2ccccc2c(=O)[nH]1)N1CCN(c2n[nH]c3ccccc23)CC1 [Example 94, 2-((3-(4-(1H-indazol-3-yl)-1-piperazinyl)-3-oxopropyl)sulfanyl)-4(3H)-quinazolinone] |
| – | 4.83 | 0.0979 | 0.16 | 1930 | 1070 | O=C(CCCc1nc2ccccc2c(=O)[nH]1)N[C@H]1CC[C@H](c2ncc(-c3ccccc3)o2)CC1 [Example 95, 4-(4-oxo-3,4-dihydro-2-quinazolinyl)-N-(trans-4-(5-phenyl-1,3-oxazol-2-yl)cyclohexyl)butanamide] |
| – | 7.66 | 0.148 | 5.02 | 3540 | 1120 | O=C(CCSc1nc2ccc(F)cc2c(=O)[nH]1)N[C@H]1CC[C@H](c2nnc(-c3ccccc3)o2)CC1 [Example 145, 3-((6-fluoro-4-oxo-3,4-dihydro-2-quinazolinyl)sulfanyl)-N-(trans-4-(5-phenyl-1,3,4-oxadiazol-2-yl)cyclohexyl)propanamide] |
| – | 738 | 3.7 | 3.48 | > 85000 | > 170000 | Cc1cc(=O)[nH]c(SCCC(=O)N[C@H]2CC[C@H](c3nnc(-c4ccccc4)o3)CC2)n1 [Example 37, 3-((4-methyl-6-oxo-1,6-dihydropyrimidin-2-yl)thio)-N-((1r,4r)-4-(5-phenyl-1,3,4-oxadiazol-2-yl)cyclohexyl)propanamide] |
